The values below come from patent publication US20190116792A1 (Dow Global Technologies LLC, priority 2016, published 2019).

The inhibition is the percentage by which the read-out fell short of the control.

This test relates to Chlorella sp. As to the kind of experiment: Algal efficacy testing of dry paint film coupons (modified ASTM 5589, 6-well plates). It is filed as cell-based, Chlorella sp. ATCC 7516. To be noted: for Total conc, ppm (concentration giving pass level ≥ 75% inhibition): total active ingredient in acrylic/silicone paint, dry film coupon, used as minimum inhibitory concentration for SI. As for the experimental part: These paints were then diluted with a biocide free acrylic/silicone based paint and mixed to prepare targeted concentrations of biocide combinations for the testing. The total biocides concentrations obtained were 125, 250, 500, 1000, 2000 and 5000 ppm. After biocides addition or dilution, the paints were mixed 90 seconds with the horse power shaker (AXEL 75M3372/Agitateur SO-10MI) until uniformity was achieved. […] After one day, the paints were applied to Schleicher & Schuell filter paper at 280 μm wet film thickness and dried for 3 days at room temperature avoiding direct exposure to sunlight. Square discs (1.8 cm×1.8 cm) were cut out from each panel and were used as the substrate for algal efficacy tests. This sample size allowed for an agar border when the sample disc was placed into the well of the test plate.
Algal efficacy was tested according to modified ASTM 5589 which is a standard accelerated test method for determining resistance of various coatings (including paints) to algal defacement. To accommodate for high-throughput screening, this method was scaled down from petri plates to 6-well plates. Bold Modified Basal Freshwater Nutrient Solution was used as growth medium for the algal culture and Bold's agar was used for the efficacy testing. A single coupon was placed with a pair of sterile forceps at the center of the agar plug (on top) with the painted surface facing upwards. The algal inoculum was prepared by diluting an exponentially growing culture of Chlorella sp. to 1×10^6 cfu/ml.
Each well that contains a tested coupon was inoculated with 1750 μl of algal suspension (1×10^6 cfu/ml) making sure that the whole surface (paint film as well as the agar surrounding it) was evenly covered. The plates were incubated at room temp (21° C.-25° C.) with cyclic exposure to 14 hours fluorescent light followed by 10 hours darkness, for a period of three weeks.
At the end of the incubation period the samples were scored for percent inhibition regarding color intensity compared to the blank sample
The SI is calculated based on F. C. Kull et.
SI=Qa/QA+Qb/QB • Qa=the concentration of Antimicrobial A in the blend • QA=the concentration of Antimicrobial A as the only biocide • Qb=the concentration of Antimicrobial B in the blend • QB=the concentration of Antimicrobial B as the only antimicrobial
SI value of <1 in the formula indicates a synergism of the blended biocides exists.
The minimal targeted inhibition was set at 75%, meaning a coupon with at least 75% algal growth inhibition was considered as a pass.

With `c1ccc2[nH]c(-c3cscn3)nc2c1` [Thiabendazole, 4-(1H-1,3-benzodiazol-2-yl)-1,3-thiazole], the inhibition at 10000 ppm (504 h, total conc 10000 ppm in paint, three weeks, color intensity vs blank) stood at 75%. Moreover, where the note is “three weeks”, the “Total conc, ppm (concentration giving pass level ≥ 75% inhibition)” value worked out at 10000 ppm.
`O=c1[nH]c2c(c(=O)n1C1CCCCC1)CCC2` [Lenacil, 3-Cyclohexyl-6,7-dihydro-1H-cyclopentapyrimidine-2,4-(3H,5H)-dione]: for the setting “504 h”, the inhibition at 1000 ppm was 90%. For the same compound, the “Total conc, ppm (concentration giving pass level ≥ 75% inhibition)” value (three weeks) was 1,000 ppm.
